Assay results: patent publication US6548507B1, “Medical use” (SmithKline Beecham Corporation, priority 1999, dated 2003)

Assays:
[1] = test system: sensory neuronal apoptosis; experiment: Apoptosis in L4 and L5 dorsal root ganglia after chronic constriction injury (CCI), Hoechst 33342 staining; format: in vivo, rat; conditions: for number of neurones undergoing apoptosis (FIG. 2): CCI rats, 10 mg/kg, time points day 7, 21 and 30, vs vehicle treated animals; for sensory neuronal apoptosis / glial apoptosis: adult male CCI rats; for sensory neuronal apoptosis: 10 mg/kg dosed day 12 to day 25, at day 30 post surgery; for glial apoptosis: 10 mg/kg dosed day 12 to day 25, results not shown
Method: Adult male random hooded rats were either chronic constriction injury (CCI) or sham operated at day 0. Dosing with vehicle, 4030W92 (10 mg/kg) or 4082W92 (10 mg/kg) was from day 12 to day 25. At time points 7, 14, 21, 27 and 30 days post surgery animals (n=3 per group except for naives) were sacrificed by exsanguination after behavioural testing as described below. Naive animals were all sacrificed 30 days post surgery. L4 and L5 dorsal root ganglias were removed and placed in a freezing medium for sectioning. Sections (14 μm) were cut using a freezing cryostat (Leica) and placed on poly (L) lysine coated slides. These were post-fixed in 4% paraformaldehyde (Sigma) for 20 minutes, dehydrated through alcohol and kept at −80° until required. On the day of staining, the sections were rehydrated through alcohol and placed in phosphate buffered saline (PBS) for at least 15 minutes. They were incubated with the fluorescent nuclear stain Hoechst 33342 (1 μg/ml) (Sigma) for 4 minutes and then washed extensively with PBS. After drying, the slides were mounted with Vectashield mounting medium (Vector Labs) and coverslipped. The slides could be kept in the dark for up to 6 weeks without fading.
The sections were studied under the microscope (Leica) at 400× for morphological signs of apoptosis—nuclear condensation, membrane blebbing and presence of apoptotic bodies (Trump 1997 supra). Cells were assigned as neurones or glia depending on their size, location, and general morphology. Four fields from each section were selected at random, the number of apoptotic cells and total number of cells was counted in each and then mean figures for each group were calculated. This analysis was carried out blind. […] Glial apoptosis was unaffected (results not shown).

[2] = test system: apoptotic neurons in L5 dorsal root ganglions; experiment: Neuronal apoptosis after sciatic nerve axotomy in the neonatal rat (TUNEL combined with Hoechst 33342 and immunohistochemistry); format: in vivo; conditions: single pre-emptive injection 10 mg/kg s/c, observed at 24 hours, vs vehicle treated controls
Method: Newborn animals received a single pre-emptive injection of R(−)-2,4-diamino-5-(2,3-dichlorophenyl)-6-fluoromethyl pyrimidine, substantially free of the corresponding S(+)enantiomer (4030W92) (10 mg/kg, s/c). Twenty minutes later the animals were anaesthetised by hypothermia, the nerve exposed and transected at the mid thigh level. The extent of neuronal and glial apoptosis was investigated using the TUNEL technique combined with Hoechst 33342 (Sigma) and immunohistochemistry. The ipsilateral and contralateral L5 dorsal root ganglions were compared and the 4030W92 treated group was compared to vehicle treated controls and to animals that received an injection of 4030W92 alone, ie. no nerve transection.

mechanical allodynia = experiment: CCI mechanical allodynia, Von Frey Hair monofilaments; format: in vivo, rat; conditions: CCI rats, drug administered from day 12, Von Frey Hair monofilaments
Text: (§1) Under isoflurane anaesthesia, the common left sciatic nerve of male Random Hooded rats (180-200 g) was exposed at mid-thigh level. Four ligatures of chromic gut (4.0) were tied loosely around the nerve with a 1 mm spacing between each. The wound was then closed and secured with suture clips. The surgical procedure was identical for the sham operated animals except the sciatic nerve was not ligated. The rats were allowed a period of seven days to recover from the surgery before behavioural testing began.
The presence of mechanical allodynia was assessed using Von Frey Hair monofilaments (range:4.19-84.96 g). The rats were lightly restrained and placed upon a metal grid floor. The monofilaments were applied to the plantar surface of the hindpaws from below the grid. The lowest monofilament to produce a withdrawal was the response recorded.

[3] = test system: mechanical hypersensitivity; experiment: CCI-induced decrease in mechanical paw withdrawal threshold (algesymeter); format: in vivo, rat; conditions: CCI rats, drug administered from day 12, algesymeter
Text: as §1
The effect on Chronic Constriction Injury-induced decrease in mechanical paw withdrawal threshold was measured using an algesymeter (Randall L O, Selitto J J. A method for measurement of analgesic activity on inflamed tissue. Arch. Int. Pharmacodyn. 1957; 61:409-419). In brief, from 7 days post surgery onwards every 2 or 3 days the animals were tested for mechanical hypersensitivity by applying an increasing weight (16 gram per second) to the dorsal surface of each hindpaw until the rat attempted to remove the paw. The increasing weight was halted at this point and the weight recorded and expressed as mechanical paw withdrawal threshold. The maximum weight applied in this model was 250 gram. Drug was administered once the hypersensitivity was maximal which in this case was at day 12.

[4] = test system: motorneuronal apoptotic cell death; conditions: after neonatal axotomy; cited from earlier work

| Structure (SMILES) | number of neurones undergoing apoptosis (FIG. 2) [1] | sensory neuronal apoptosis [1] | glial apoptosis [1] | number of apoptotic neurons [2] | Von Frey withdrawal threshold (mechanical allodynia) (mechanical allodynia) | mechanical paw withdrawal threshold [3] | motorneuronal apoptotic cell death [4] |
| --- | --- | --- | --- | --- | --- | --- | --- |
| Nc1nc(N)c(-c2cccc(Cl)c2Cl)c(CF)n1 (atropisomer, axis not shown) [4030W92, R(−)-2,4-diamino-5-(2,3-dichlorophenyl)-6-fluoromethyl pyrimidine] | decreases | significantly reduced sensory neuronal apoptosis | unaffected | significant reduction in the number of apoptotic neurons | significantly reversed the reduction in thresholds | significantly reversed the reduction in thresholds | – |
| Nc1nc(N)c(-c2cccc(Cl)c2Cl)c(CF)n1 [4082W92, S(+)-2,4-diamino-5-(2,3-dichlorophenyl)-6-fluoromethylpyrimidine] | decreases | significantly reduced sensory neuronal apoptosis | unaffected | – | – | – | – |
| Nc1nnc(-c2cccc(Cl)c2Cl)c(N)n1 [lamotrigine, 3,5-diamino-6-(2,3-dichlorophenyl)-1,2,4-triazine] | – | – | – | – | – | – | can prevent motorneuronal apoptotic cell death |
